Test results: the OPERA property sets (Mansouri et al. 2018)
≈ marks a conversion by molar mass, not a printed value.

Q: For `Clc1ccc(C2(Cn3cncn3)CC(Br)CO2)c(Cl)c1` (configuration not stated), which logP is on record?
A: 3.24

Q: What about the solubility (25 °C) of the same compound?
A: 0.133 mM (≈ 50 µg/mL)

Q: With `CC(Oc1cccc(Cl)c1)C(=O)O` (configuration not stated) as the compound, how does the solubility (22 °C) read?
A: 5.98 mM (≈ 1200 µg/mL)

Q: With `CCOP(=O)(OCC)SCCSCC` as the compound, how does the solubility (20 °C) read?
A: 7.74 mM (≈ 2000 µg/mL)

Q: Which logP does the source give for `CCCCOC(=O)[C@@H](C)Oc1ccc(Oc2ccc(C#N)cc2F)cc1` here?
A: 3.31

Q: Which solubility (pH 9.2, 20 °C) does the source give for `Nc1c(Cl)c(F)nc(OCC(=O)O)c1Cl` here?
A: 0.357 mM (≈ 91 µg/mL)

Q: With `Fc1ccc(Oc2ccnc3cc(Cl)cc(Cl)c23)cc1` as the compound, how does the logP read?
A: 4.66

Q: And the solubility (20 °C)?
A: 0.000376 mM (≈ 0.116 µg/mL)

Q: For `CC1OC(C)OC(C)OC(C)O1` (configuration not stated), which logP is on record?
A: 0.12

Q: With `CN/C(=N\[N+](=O)[O-])NCc1cnc(Cl)s1` as the compound, how does the logP read?
A: 0.7

Q: With `CCCCC(CC)COC(=O)COc1ccc(Cl)cc1Cl` (configuration not stated) as the compound, how does the logP read?
A: 5.78

Q: With `C/C=C(\C)C(=O)O[C@H]1C[C@@H](OC(C)=O)[C@@]2(C(=O)OC)CO[C@H]3[C@@H](O)[C@@](C)([C@]45O[C@@]4(C)[C@H]4C[C@@H]5O[C@@H]5OC=C[C@@]54O)[C@H]4[C@]1(CO[C@]4(O)C(=O)OC)[C@@H]32` as the compound, how does the solubility read?
A: 0.361 mM (≈ 260 µg/mL)

Q: Which logP does the source give for `O=[N+]([O-])/N=C1\NCCN1Cc1ccc(Cl)nc1` here?
A: 0.57

Q: For `CC(C)N1C(=O)N(c2ccccc2)CSC1=NC(C)(C)C`, which logP is on record?
A: 4.3

Q: What about the solubility (20 °C) of the same compound?
A: 0.00295 mM (≈ 0.9 µg/mL)

Q: For `COC(=O)c1ccccc1S(=O)(=O)NC(=O)Nc1nc(C)cc(C)n1`, which solubility (pH 7.0, 25 °C) is on record?
A: 0.743 mM (≈ 271 µg/mL)

Q: For `CCCC1COC(Cn2cncn2)(c2ccc(Cl)cc2Cl)O1` (configuration not stated), which logP is on record?
A: 3.72

Q: What about the solubility (20 °C) of the same compound?
A: 0.321 mM (≈ 110 µg/mL)

Q: Which logP does the source give for `C=CCOC(Cn1ccnc1)c1ccc(Cl)cc1Cl` (configuration not stated) here?
A: 3.82

Q: And the solubility (pH 7.6, 20 °C)?
A: 0.606 mM (≈ 180 µg/mL)

Q: With `N#CN` as the compound, how does the logP read?
A: -0.82

Q: What about the solubility (20 °C) of the same compound?
A: 11900 mM (≈ 500000 µg/mL)

Q: For `CN(C)C(=S)SSC(=S)N(C)C`, which logP is on record?
A: 1.73

Q: With `CCCN(CC1CC1)c1c([N+](=O)[O-])cc(C(F)(F)F)cc1[N+](=O)[O-]` as the compound, how does the solubility (20 °C) read?
A: 0.000288 mM (≈ 0.1 µg/mL)

Q: What does the source list for `CCOC1Oc2ccc(OS(C)(=O)=O)cc2C1(C)C` (configuration not stated)?
A: logP: 2.7; solubility (25 °C): 0.259 mM (≈ 74.1 µg/mL)

Q: Which logP does the source give for `CCC(C)(NC(=O)c1cc(Cl)c(C)c(Cl)c1)C(=O)CCl` (configuration not stated) here?
A: 3.76

Q: With `Cc1ccc2nc3sc(=O)sc3nc2c1` as the compound, how does the logP read?
A: 3.78

Q: And the solubility (20 °C)?
A: 0.00427 mM (≈ 1 µg/mL)

Q: With `CCN(CC)c1c([N+](=O)[O-])cc(C(F)(F)F)c(N)c1[N+](=O)[O-]` as the compound, how does the logP read?
A: 4.3

Q: With `CC(C)=CC1C(C(=O)OCc2coc(Cc3ccccc3)c2)C1(C)C` (configuration not stated) as the compound, how does the solubility (25 °C) read?
A: 0.000315 mM (≈ 0.107 µg/mL)

Q: With `CCN(Cc1ccc(Cl)nc1)/C(=C/[N+](=O)[O-])NC` as the compound, how does the logP read?
A: -0.66

Q: Which solubility (25 °C) does the source give for `CC(C)N(C(=O)CCl)c1ccccc1` here?
A: 3.31 mM (≈ 700 µg/mL)

Q: With `CC(C)=CC1C(C(=O)OCc2cccc(Oc3ccccc3)c2)C1(C)C` (configuration not stated) as the compound, how does the logP read?
A: 6.01

Q: And the solubility (25 °C)?
A: < 2.77e-05 mM

Q: What does the source list for `CCC(CC)Nc1c([N+](=O)[O-])cc(C)c(C)c1[N+](=O)[O-]`?
A: logP: 5.2; solubility (20 °C): 0.00107 mM (≈ 0.3 µg/mL)

Q: Which logD (pH 7.3) does the source give for `O=C(Nc1ccccc1)Nc1cnns1` here?
A: 1.77

Q: For `N#Cc1c(Cl)c(Cl)c(Cl)c(C#N)c1Cl`, which solubility (25 °C) is on record?
A: 0.00226 mM (≈ 0.6 µg/mL)

Q: With `COC(=O)N(C(=O)N1CO[C@@]2(C(=O)OC)Cc3cc(Cl)ccc3C2=N1)c1ccc(OC(F)(F)F)cc1` as the compound, how does the logP read?
A: 4.65

Q: Which logP does the source give for `CON=C(C(=O)OC)c1ccccc1CON=C(C)c1cccc(C(F)(F)F)c1` here?
A: 4.5

Q: With `COC(=O)c1ccccc1S(=O)(=O)NC(=O)N(C)c1nc(C)nc(OC)n1` as the compound, how does the solubility (pH 5.0, 25 °C) read?
A: 0.126 mM (≈ 50 µg/mL)

Q: For `O=[N+]([O-])c1cc(C(F)(F)F)c(Cl)c([N+](=O)[O-])c1Nc1ncc(C(F)(F)F)cc1Cl`, which logP is on record?
A: 4.01

Q: Which logP does the source give for `Nc1nc[nH]n1` here?
A: -0.97

Q: For `CC1(C(=O)Nc2ccc(O)c(Cl)c2Cl)CCCCC1`, which logP is on record?
A: 3.51

Q: For `CSc1nnc(C(C)(C)C)c(=O)n1/N=C/C(C)C`, which solubility (20 °C) is on record?
A: 0.0373 mM (≈ 10 µg/mL)

Q: With `CCSC(=O)N(CC)C1CCCCC1` as the compound, how does the logP read?
A: 3.88

Q: Which solubility (25 °C) does the source give for `C#CCOS(=O)OC1CCCCC1Oc1ccc(C(C)(C)C)cc1` (configuration not stated) here?
A: 0.00143 mM (≈ 0.5 µg/mL)

Q: For `N#CCON=C(C#N)c1ccccc1`, which solubility (20 °C) is on record?
A: 0.513 mM (≈ 95 µg/mL)

Q: Which logP does the source give for `COC(=O)c1ccccc1CS(=O)(=O)NC(=O)Nc1nc(OC)cc(OC)n1` here?
A: 2.18

Q: For `CC1=C(C(=O)Nc2ccccc2)S(=O)(=O)CCO1`, which logP is on record?
A: 0.77

Q: And the solubility (25 °C)?
A: 4.43 mM (≈ 1180 µg/mL)

Q: With `CCCC(=O)N(CSP(=S)(OC)OC)c1ccccc1Cl` as the compound, how does the logP read?
A: 0.56

Q: With `C[C@@H]1[C@@H](c2ccc(Cl)cc2)SC(=O)N1C(=O)NC1CCCCC1` (single isomer, unassigned) as the compound, how does the solubility (20 °C) read?
A: 0.00142 mM (≈ 0.5 µg/mL)

Q: For `COC(=O)N(OC)c1ccccc1COc1ccn(-c2ccc(Cl)cc2)n1`, which logP is on record?
A: 3.99

Q: With `CCCCNC1(P(=O)(OCCCC)OCCCC)CCCCC1` as the compound, how does the solubility (20 °C) read?
A: 0.489 mM (≈ 170 µg/mL)

Q: With `CC1=C(C(=O)Nc2ccccc2)SCCO1` as the compound, how does the solubility (20 °C) read?
A: 0.672 mM (≈ 158 µg/mL)

Q: For `C[n+]1ccc(-c2cc[n+](C)cc2)cc1.[Cl-].[Cl-]`, which logP is on record?
A: -4.5

Q: And the solubility (20 °C)?
A: 2720 mM

Q: For `CCOC(=O)COc1cc(-c2nn(C)c(OC(F)F)c2Cl)c(F)cc1Cl`, which logP is on record?
A: 3.49

Q: For `O=C(Nc1ccccc1-c1ccc(Cl)cc1)c1cccnc1Cl`, which logP is on record?
A: 2.96

Q: With `C[n+]1ccc(-c2cc[n+](C)cc2)cc1` as the compound, how does the solubility (20 °C) read?
A: 2410 mM

Q: Which results are given for `CN1CSC(=S)N(C)C1`?
A: logP: 0.63; solubility (20 °C): 18.5 mM (≈ 3000 µg/mL)

Q: Which logP does the source give for `CCCCCCCC(=O)Oc1c(Br)cc(C#N)cc1Br` here?
A: 5.4

Q: Which logP does the source give for `CCC(C)(CC)c1cc(NC(=O)c2c(OC)cccc2OC)on1` here?
A: 3.94

Q: For `Nc1c(Cl)c(Cl)nc(C(=O)O)c1Cl`, which logP is on record?
A: 1.9
